Reference: publication PMC10877733, “Discovery and Characterization of VU0542270, the First Selective Inhibitor of Vascular Kir6.1/SUR2B KATP Channels” (Molecular Pharmacology, 2024)
Read-outs that look alike come from different tables or passages of the source.

How the values were obtained:
Kir6.1/SUR2B = target: T1, Kir6.1/SUR2B (Homo sapiens, UniProt O60706); assay: Thallium flux assay of Kir6.1/SUR2B in HEK293 cells; assay type: cell-based; details: for Kir6.1/SUR2B inhibition, SAR in words: modification of the right side thiophene
T1 construct: expressed in transfected cells; also transiently transfected HEK293T
Source text: The pcDNA3.1-SUR2B plasmid was generously provided by Dr. Colin Nichols (Washington University). […] Stably transfected tetracycline-regulated expression human embryonic kidney-293 (T-Rex-HEK293) cells expressing both plasmids were generated by cotransfecting cells with Lipofectamine LTX followed by antibiotic selection and clonal selection using the thallium flux assay described below. […] The cell culture media contained Dulbecco's modified Eagle's medium (Gibco, 11965-092) supplied with heat-inactivated FBS (bio-techne, Minneapolis, MN […],10%), Blasticidine HCl (Gibco, A11139-03, 10 ug/mL), Penicillin-Streptomycin (Gibco, 15140-122, 2 mM), G418 Sulfate (CORNING, Corning, NY, 30-234-CR, 1 mg/mL), and Hygromycin B (Invitrogen, Carlsbad, CA, 10687-010, 250 ug/mL). For selectivity assays, HEK293T cells were cotransfected with Kir6.x and SURX with Lipofectamine LTX and incubated for 48 hours before thallium flux assays. […] [[…] et al., 2019]). […] Dye-loaded cells were washed with assay buffer and transferred to a Panoptic Kinetic Imaging Plate Reader (Wavefront Bioscience, Franklin, TN). Control and test compound treatments were for 4 minutes prior to adding 0.5 mM chloride-free thallium stimulus buffer (Ion Bioscience) to initiate thallium flux. […] Selectivity assays against other Kir channels were performed essentially as described previously ([[…] et al., 2018]; [[…] al., 2022]). […] Data were acquired using Panoptic Software, Waveguide (Wavefront Biosciences). Raw fluorescence values were imported for analysis into custom software (VICB, Vanderbilt University). Fluorescence versus time values for each well were normalized to the initial fluorescence value [F/F0]. […] CRC data were plotted in GraphPad Prism (GraphPad Software, San Diego, CA) and fitted with a four-parameter logistic model to determine IC50 values for rank-ordering hit potency.

[1] = tested on: isolated mouse ductus arteriosus vessels; assay: Pressure myography of isolated ductus arteriosus vessels; details: term gestation mouse DA
Protocol: CD-1 mice were maintained at Vanderbilt University Medical Center in accordance with protocols approved by the Institutional Animal Care and Use Committee. Timed matings were performed to produce offspring at specific stages of development. The presence of a vaginal plug was designated as embryonic day 1.
Term-gestation (embryonic day 19) fetal mouse DAs were isolated and mounted on glass pipet tips in microvessel perfusion chambers as previously reported ([Hooper et al., 2016]). Deoxygenated Krebs buffer was warmed to 37°C and circulated throughout the chamber. Vessels were pressurized in a stepwise manner to physiologic neonatal mouse mean arterial pressure (20 mmHg) and then challenged with 50 mM KCl to test reactivity. […] For dose-response studies, vessels were first dilated by circulating Krebs buffer bubbled with 95% nitrogen, 5% CO2 to mimic the hypoxic conditions of the womb. […] Following each dose, lumen diameters were allowed to plateau (approximately 20 minutes) before the next dose was added. Continuous lumen diameter measurements were recorded using a digital image capture system (IonOptix). An N of >6 vessels from at least three different litters was used for each experimental condition. Changes in lumen diameter are represented as the percent change in diameter compared with the baseline lumen diameter of vessels prior to drug exposure. […] Values represent mean ± S.D.

Kir6.2/SUR1 = target: T2, Kir6.2/SUR1 (Homo sapiens, UniProt Q09428); assay: Thallium flux assay of Kir6.2/SUR1 in HEK293 cells; assay type: cell-based; details: T-Rex-HEK293-Kir6.2/SUR1 cells
T2 construct: expressed in transfected cells; also transiently transfected HEK293T
Protocol: The pcDNA3.1-SUR2B plasmid was generously provided by Dr. Colin Nichols (Washington University). The pcDNA5/TO-Kir6.1 plasmid was synthesized by GenScript. […] For selectivity assays, HEK293T cells were cotransfected with Kir6.x and SURX with Lipofectamine LTX and incubated for 48 hours before thallium flux assays.
Stable T-Rex-HEK293-Kir6.1/SUR2B cells or transiently transfected HEK293T cells were plated in polyamine-coated, clear-bottomed, black-walled 384-well plates and were cultured (37°C/5% CO2) overnight in Dulbecco’s modified Eagle’s medium (Gibco, Carlsbad, CA, 11995-065) containing 10% FBS (2 mM Penicillin-Streptomycin). The following day, cells were washed with assay buffer (i.e., Hanks’ balanced salt solution/20 mM HEPES) and loaded for 1 hour with thallium sensor dye Brilliant Thallium (Ion Bioscience, San Marcos, TX) at room temperature. Dye-loaded cells were washed with assay buffer and transferred to a Panoptic Kinetic Imaging Plate Reader (Wavefront Bioscience, Franklin, TN). Control and test compound treatments were for 4 minutes prior to adding 0.5 mM chloride-free thallium stimulus buffer (Ion Bioscience) to initiate thallium flux.

[2] = pinacidil-activated, read-out: Kir6.1/SUR2B IC50

T1 sequence (O60706 1-1549 isoform O60706-2, species assumed): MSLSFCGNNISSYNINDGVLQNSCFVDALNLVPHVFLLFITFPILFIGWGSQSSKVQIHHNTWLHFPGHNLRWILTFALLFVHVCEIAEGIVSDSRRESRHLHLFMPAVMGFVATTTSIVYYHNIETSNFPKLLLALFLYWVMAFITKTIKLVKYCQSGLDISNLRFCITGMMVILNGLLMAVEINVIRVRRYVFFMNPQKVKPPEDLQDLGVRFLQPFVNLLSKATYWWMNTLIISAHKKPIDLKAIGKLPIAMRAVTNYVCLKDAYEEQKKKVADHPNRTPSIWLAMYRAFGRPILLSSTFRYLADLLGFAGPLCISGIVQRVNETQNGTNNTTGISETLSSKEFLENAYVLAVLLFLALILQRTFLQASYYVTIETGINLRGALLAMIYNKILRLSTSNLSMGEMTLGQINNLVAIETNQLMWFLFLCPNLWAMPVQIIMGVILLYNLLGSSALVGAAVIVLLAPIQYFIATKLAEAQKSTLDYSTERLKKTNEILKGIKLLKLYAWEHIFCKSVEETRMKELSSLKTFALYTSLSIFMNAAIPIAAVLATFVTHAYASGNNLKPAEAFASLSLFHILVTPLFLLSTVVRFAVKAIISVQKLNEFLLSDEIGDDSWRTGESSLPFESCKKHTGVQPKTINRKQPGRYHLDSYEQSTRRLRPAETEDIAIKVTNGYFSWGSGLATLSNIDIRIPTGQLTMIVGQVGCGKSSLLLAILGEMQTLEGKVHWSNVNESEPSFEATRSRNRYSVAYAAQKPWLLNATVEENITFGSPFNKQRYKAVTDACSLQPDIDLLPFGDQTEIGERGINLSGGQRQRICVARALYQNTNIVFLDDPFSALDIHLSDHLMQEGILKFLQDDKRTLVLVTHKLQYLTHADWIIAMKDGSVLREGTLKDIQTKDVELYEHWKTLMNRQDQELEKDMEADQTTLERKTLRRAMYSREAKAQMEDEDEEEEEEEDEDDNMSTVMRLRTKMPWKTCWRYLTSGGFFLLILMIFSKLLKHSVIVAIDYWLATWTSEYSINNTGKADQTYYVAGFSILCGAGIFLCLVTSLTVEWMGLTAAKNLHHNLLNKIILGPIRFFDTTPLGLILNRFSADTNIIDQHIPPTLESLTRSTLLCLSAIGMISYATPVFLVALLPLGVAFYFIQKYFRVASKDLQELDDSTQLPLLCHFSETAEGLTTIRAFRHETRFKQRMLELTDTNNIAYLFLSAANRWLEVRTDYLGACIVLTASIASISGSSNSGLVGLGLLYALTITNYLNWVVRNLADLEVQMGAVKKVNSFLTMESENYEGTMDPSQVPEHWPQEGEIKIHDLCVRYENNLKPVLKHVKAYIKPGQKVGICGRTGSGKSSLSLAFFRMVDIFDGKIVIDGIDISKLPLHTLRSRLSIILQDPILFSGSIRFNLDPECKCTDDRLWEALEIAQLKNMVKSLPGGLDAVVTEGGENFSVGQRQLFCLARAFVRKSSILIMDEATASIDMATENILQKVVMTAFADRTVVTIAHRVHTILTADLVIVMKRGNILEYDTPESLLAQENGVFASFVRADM
T1 sequence (Q15842 whole entry partner, species assumed): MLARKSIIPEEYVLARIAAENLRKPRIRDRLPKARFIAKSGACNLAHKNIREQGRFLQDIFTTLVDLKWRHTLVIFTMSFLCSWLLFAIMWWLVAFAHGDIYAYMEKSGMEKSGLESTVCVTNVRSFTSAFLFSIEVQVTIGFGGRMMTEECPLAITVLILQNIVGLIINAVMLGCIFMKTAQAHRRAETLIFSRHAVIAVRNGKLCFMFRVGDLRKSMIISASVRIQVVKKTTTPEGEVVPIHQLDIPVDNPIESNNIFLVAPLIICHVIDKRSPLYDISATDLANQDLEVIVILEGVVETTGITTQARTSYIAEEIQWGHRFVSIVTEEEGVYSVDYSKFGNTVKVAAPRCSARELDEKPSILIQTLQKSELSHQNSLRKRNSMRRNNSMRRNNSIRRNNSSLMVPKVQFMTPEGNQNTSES
T2 sequence (Q09428 whole entry, species assumed): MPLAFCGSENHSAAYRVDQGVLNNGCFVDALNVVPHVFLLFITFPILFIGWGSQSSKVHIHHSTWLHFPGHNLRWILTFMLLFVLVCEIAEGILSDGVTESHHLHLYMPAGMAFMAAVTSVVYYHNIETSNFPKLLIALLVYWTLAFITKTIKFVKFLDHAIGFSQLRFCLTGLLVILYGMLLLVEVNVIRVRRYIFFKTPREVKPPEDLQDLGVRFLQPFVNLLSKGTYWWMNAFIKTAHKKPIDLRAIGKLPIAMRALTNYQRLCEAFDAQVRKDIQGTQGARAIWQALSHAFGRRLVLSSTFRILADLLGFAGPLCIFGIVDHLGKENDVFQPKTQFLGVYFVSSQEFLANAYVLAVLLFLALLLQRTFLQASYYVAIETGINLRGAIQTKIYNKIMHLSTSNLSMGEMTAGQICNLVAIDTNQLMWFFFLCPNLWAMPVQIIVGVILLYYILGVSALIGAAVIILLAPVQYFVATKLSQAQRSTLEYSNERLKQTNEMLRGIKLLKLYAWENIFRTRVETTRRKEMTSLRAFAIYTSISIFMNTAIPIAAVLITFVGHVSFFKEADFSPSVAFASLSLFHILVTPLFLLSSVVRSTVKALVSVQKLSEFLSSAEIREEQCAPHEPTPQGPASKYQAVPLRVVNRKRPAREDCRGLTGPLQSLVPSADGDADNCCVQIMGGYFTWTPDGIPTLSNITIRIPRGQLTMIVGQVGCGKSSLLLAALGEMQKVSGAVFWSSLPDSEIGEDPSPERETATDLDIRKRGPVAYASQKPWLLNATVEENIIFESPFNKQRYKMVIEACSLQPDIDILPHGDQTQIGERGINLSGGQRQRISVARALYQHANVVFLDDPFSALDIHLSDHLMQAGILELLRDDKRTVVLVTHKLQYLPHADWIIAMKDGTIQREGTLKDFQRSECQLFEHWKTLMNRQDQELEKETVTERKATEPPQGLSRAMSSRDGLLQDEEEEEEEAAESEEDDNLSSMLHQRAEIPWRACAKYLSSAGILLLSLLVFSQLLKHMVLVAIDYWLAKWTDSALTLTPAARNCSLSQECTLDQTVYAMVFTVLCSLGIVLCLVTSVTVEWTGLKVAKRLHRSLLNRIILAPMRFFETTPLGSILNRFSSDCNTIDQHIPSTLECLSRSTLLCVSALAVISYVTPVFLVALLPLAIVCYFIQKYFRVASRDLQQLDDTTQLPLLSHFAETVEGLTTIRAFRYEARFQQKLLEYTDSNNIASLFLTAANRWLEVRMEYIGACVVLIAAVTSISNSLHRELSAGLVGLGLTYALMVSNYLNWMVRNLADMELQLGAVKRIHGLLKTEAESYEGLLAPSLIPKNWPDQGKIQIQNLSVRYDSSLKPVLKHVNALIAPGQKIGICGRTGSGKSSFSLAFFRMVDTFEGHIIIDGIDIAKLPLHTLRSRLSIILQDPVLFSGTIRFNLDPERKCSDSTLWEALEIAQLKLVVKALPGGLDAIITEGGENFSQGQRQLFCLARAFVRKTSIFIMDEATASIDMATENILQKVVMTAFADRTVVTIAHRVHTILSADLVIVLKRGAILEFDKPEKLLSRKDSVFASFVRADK
T2 sequence (Q14654 whole entry partner, species assumed): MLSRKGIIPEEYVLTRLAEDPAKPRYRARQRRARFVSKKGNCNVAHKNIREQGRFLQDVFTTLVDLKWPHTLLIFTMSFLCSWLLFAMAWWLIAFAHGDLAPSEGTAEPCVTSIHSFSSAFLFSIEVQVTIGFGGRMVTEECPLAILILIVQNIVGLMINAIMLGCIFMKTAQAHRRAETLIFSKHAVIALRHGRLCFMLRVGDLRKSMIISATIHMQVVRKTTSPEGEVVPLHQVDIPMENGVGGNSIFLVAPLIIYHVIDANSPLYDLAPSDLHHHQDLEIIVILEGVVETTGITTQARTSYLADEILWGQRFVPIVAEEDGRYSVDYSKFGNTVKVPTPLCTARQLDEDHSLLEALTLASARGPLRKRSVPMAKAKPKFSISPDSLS

Row | SMILES | IC50 (Kir6.1/SUR2B; [2]) | further results
1 | O=C(NCc1cc(-c2ccncc2)n(C2CCCC2)n1)Nc1cccs1 [compound 8] | 527 nM | 
2 | O=C(NCC1(c2ccc(F)cc2)CC1)Nc1cccs1 [compound 11] | 987 nM | 
3 | COc1ccc(Cl)cc1C(=O)NCCc1ccc(S(=O)(=O)NC(=O)NC2CCCCC2)cc1 [glibenclamide, reference compound] |  | IC50 (Kir6.1/SUR2B; transfected HEK-293 cells, pinacidil activation, read-out: Kir6.1/SUR2B IC50 (Fig. 4C)): 115 nM; ductus arteriosus vessel constriction ([1]; increasing concentrations, compound alone): constricted in a concentration-dependent manner; ductus arteriosus vessel constriction in the presence of pinacidil ([1]; with 10 µM pinacidil): substantially blunted vasoconstrictive effects
4 | Cn1nc(CNC(=O)Nc2cccc(C(F)(F)F)c2)cc1-c1ccncc1 [compound 10] | 857 nM | 
5 | Cn1nc(CNC(=O)Nc2cccs2)c2ccccc2c1=O [compound 12] | 780 nM | 
6 | CC(N/C(=N\C#N)Nc1ccncc1)C(C)(C)C (centres unmarked) [pinacidil, reference compound] |  | effect on Kir6.2/SUR1 thallium flux (opening) (Kir6.2/SUR1): no effect

Now from value to compound, other results behind:

Row | IC50 (Kir6.1/SUR2B; [2]) | SMILES | further results
7 | 1620 nM | Cc1nc(-c2cccs2)sc1CNC(=O)Nc1cccnc1 [compound 6] | Kir6.1/SUR2B inhibition, SAR in words (Kir6.1/SUR2B): very weak
8 | 12600 nM | Cc1nc(-c2cccs2)sc1CNC(=O)Nc1ccncc1 [compound 7] | Kir6.1/SUR2B inhibition, SAR in words (Kir6.1/SUR2B): very weak
9 | 545 nM | Cc1nc(-c2ccccc2F)sc1CNC(=O)Nc1cccs1 [compound 5] | 
10 | 6130 nM | Cn1nc(CNC(=O)Nc2cccs2)cc1-c1ccncc1 [compound 9] | 
